Results as given in PMC9847973, “Characterizing inhibitors of human AP endonuclease 1” (PLOS ONE, 2023).
Where two headings read alike, the source gives them in different places.

What was measured:
[1] = molecular target: T1, apo APE1^ΔN38 (Homo sapiens, UniProt P27695); assay: NMR chemical shift perturbation (15N-TROSY), apo APE1; assay type: binding; settings: for number of residues with substantial CSPs (Δδ ≥ 0.015 ppm) / sum of CSPs (ΣΔδ) for all assigned APE1 residues / number of residues with relatively strong CSPs (Δδ ≥ 0.03 ppm): apo APE1^ΔN38 0.15 mM, compound 1 mM
T1 construct: Human APE1 lacking the 38 N-terminal residues (APE1^ΔN38); poly-His (N, cleaved yes); made in house; host or cells: E. coli

[2] = Dynamic light scattering (DLS) of compound aggregation; assay type: physicochemical; settings: for effect of detergent on aggregation: 0.05% Brij 35; for concentration at which colloidal aggregates form: 20°C; for effect of centrifugation on aggregates: detergent-free buffer, centrifugation (60 min, 16000g)
Protocol: Dynamic light scattering (DLS) experiments were performed to monitor compound aggregation, using a SpectroLight 610 instrument (Xtal Concepts, Hamburg). The instrument features a laser diode (λ 658 nm) which was set to a power of 100 mW and a scattering angle of 150°. For each sample, five replicates of 60 sec duration were collected at 20°C. Instrument settings, including integration time, were held constant for all experiments. Samples (1 ul) were prepared under mineral oil in 96 well SBS plates. Samples included the same buffer used for enzyme activity assays, with or without Brij 35 (and in all cases without BSA). The compounds were introduced from 100x stocks prepared in DMSO, giving a final DMSO concentration of 1%; samples without compound contained 1% DMSO. The DLS studies were in some cases performed using compound stocks that had been stored at –20°C in DMSO.

[3] = test system: APE1; settings: cited from earlier work
[4] = molecular target: T2, Human APE1 lacking the 38 N-terminal residues (APE1^ΔN38) (Homo sapiens, UniProt P27695); assay: APE1 endonuclease activity assay (HPLC, fraction activity); assay type: biochemical
T2 construct: Human APE1 lacking the 38 N-terminal residues (APE1^ΔN38); poly-His (N, cleaved yes); made in house; host or cells: E. coli

[5] = molecular target: T3, Mg^2+-bound APE1 (Homo sapiens, UniProt P27695); assay: NMR chemical shift perturbation (15N-TROSY), Mg2+-bound APE1; assay type: binding; settings: MgCl2 0.25 mM or 1.0 mM
T3 construct: Human APE1 lacking the 38 N-terminal residues (APE1^ΔN38); poly-His (N, cleaved yes); made in house; host or cells: E. coli
Protocol: NMR samples (0.55 mL) contained uniformly ^15N-labeled APE1^ΔN38 (0.05 mM to 0.15 mM) in 0.02 M sodium phosphate pH 6.5, 0.1 M NaCl, 0.5 mM DTT, 0.2 mM EDTA, 10% D2O. The compounds were dissolved at 100x concentration in deuterated DMSO (DMSO-D6) and were added to the NMR samples at 1% (v/v) to give the desired compound concentration (and 1% DMSO-D6). Control samples contained APE1 with 1% DMSO-D6. […] NMR data were processed with NMRPipe, and analyzed using NMRFAM-Sparky. The chemical shift perturbation (Δδ) for backbone ^1H-^15N resonances (combined) was calculated (by NMRFAM-Sparky) using Eq 2, Δδ=ΔδH^2+ΔδN/5^2^1/2 (2) where ΔδH and ΔδN are the perturbations for ^1H and ^15N resonances, respectively.
Given the findings above, we sought to investigate whether compounds 6 or 7 might bind to the Mg^2+-bound form of APE1. […] Crystal structures of Mg^2+-bound APE1 have been determined, using crystals grown from a sample of APE1 with 1.0 mM MgCl2, a concentration that is sufficient to fully populate the metal-binding site with Mg^2+ [52, 73]. […]

[6] = test system: enzyme-substrate (ES) complex involving APE1 (28 nM) and AP-DNA (10 nM); design: method as in PMID 22455312; settings: cited from earlier work; for population of AP-DNA bound: 100% in its absence
[7] = Precipitation of compound in NMR samples; assay type: physicochemical; settings: NMR buffer pH 6.5
Protocol: The NMR sample contained 0.03 mM compound 7 and 0.05 mM APE1, giving a molar ratio of 0.6. […] To minimize precipitation of 7, the NMR samples (including DMSO control) contained detergent (0.05% Brij 35) at the same concentration used for the activity assays. […] Thus, the NMR CSP studies provide no evidence that compound 7 binds specifically to apo-APE1. […] In particular, the population of AP-DNA bound was reduced from 100% (absence of 7) to about 30% and 5% in the presence of 7 at a concentration of 0.01 mM and 0.03 mM, respectively, indicating 7 binds with a Kd <0.01 mM to either APE1 or to AP-DNA.

[8] = detergent-free assay buffer, 1% DMSO
[9] = no detergent or BSA, 37°C, read-out: IC50 for APE1 inhibition (prior findings)
[10] = read-out: IC50 for APE1 inhibition (reported)
[11] = 0.05% Brij 35, 0.1 mg/ml BSA, 80 nM DNA substrate, 23°C, 1% DMSO, read-out: IC50 for APE1 inhibition

T2 sequence (P27695 39-318): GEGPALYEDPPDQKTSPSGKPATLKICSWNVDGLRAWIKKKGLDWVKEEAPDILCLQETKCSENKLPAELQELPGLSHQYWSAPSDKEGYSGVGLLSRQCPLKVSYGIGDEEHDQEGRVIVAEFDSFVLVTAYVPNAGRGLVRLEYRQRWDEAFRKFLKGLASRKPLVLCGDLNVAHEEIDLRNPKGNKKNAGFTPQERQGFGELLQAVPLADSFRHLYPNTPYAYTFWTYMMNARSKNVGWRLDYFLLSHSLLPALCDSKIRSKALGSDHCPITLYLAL
T1 sequence (P27695 39-318): as above
T3 sequence (P27695 39-318): as above

**Q.** What does the source list for O=C(O)c1cc2cccc([N+](=O)[O-])c2[nH]1 [Compound 1, 7-nitroindole-2-carboxylic acid]?
**A.** number of residues with substantial CSPs (Δδ ≥ 0.015 ppm) [1]: 14; sum of CSPs (ΣΔδ) for all assigned APE1 residues [1]: 1.19; effect of detergent on aggregation [2]: disrupted by detergent; concentration at which colloidal aggregates form [2, 8]: 2000 µM; effect of centrifugation on aggregates [2]: pelleted out of solution by centrifugation; IC50 [3, 9]: ≤ 10 µM; IC50 [3, 10]: 3 µM

**Q.** Which “number of residues with substantial CSPs (Δδ ≥ 0.015 ppm)” value [1] does the source give for O=C(O)c1cc2cc(F)ccc2[nH]1 [Compound 2, 5-fluoroindole-2-carboxylic acid] here?
**A.** The value was “ten”.

**Q.** And the “sum of CSPs (ΣΔδ) for all assigned APE1 residues” value [1]?
**A.** Its value is 1.31.

**Q.** What about the “effect of detergent on aggregation” value [2] of the same compound?
**A.** The value was “disrupted by detergent”.

**Q.** What about the “concentrations at which the compound is free of aggregates” value [2, 8] of the same compound?
**A.** Its value is “below 3 mM”.

**Q.** What about the “concentration at which colloidal aggregates form” value [2, 8] of the same compound?
**A.** Its value is 10000 µM.

**Q.** And the “effect of centrifugation on aggregates” value [2]?
**A.** The value was “pelleted by centrifugation”.

**Q.** And the IC50 [3, 9]?
**A.** Its IC50 is at most 10 µM.

**Q.** What about the IC50 [3, 10] of the same compound?
**A.** Its IC50 is 10 µM.

**Q.** What does the source list for O=C(O)c1cc2cc([N+](=O)[O-])ccc2[nH]1 [Compound 3, 5-nitroindole-2-carboxylic acid]?
**A.** number of residues with relatively strong CSPs (Δδ ≥ 0.03 ppm) [1]: 14; number of residues with substantial CSPs (Δδ ≥ 0.015 ppm) [1]: 20; sum of CSPs (ΣΔδ) for all assigned APE1 residues [1]: 2.47; effect of detergent on aggregation [2]: disrupted by detergent; effect of centrifugation on aggregates [2]: pelleted by centrifugation

**Q.** What does the source list for O=C(O)c1cc2ccc(Br)cc2[nH]1 [Compound 4, 6-bromoindole-2-carboxylic acid]?
**A.** number of residues with relatively strong CSPs (Δδ ≥ 0.03 ppm) [1]: eight; number of residues with substantial CSPs (Δδ ≥ 0.015 ppm) [1]: 22; sum of CSPs (ΣΔδ) for all assigned APE1 residues [1]: 2.54; effect of detergent on aggregation [2]: disrupted by detergent; concentration at which colloidal aggregates form [2, 8]: ≥ 1000 µM; effect of centrifugation on aggregates [2]: pelleted by centrifugation

**Q.** With O=c1c(O)c(-c2cc(O)c(O)c(O)c2)oc2cc(O)cc(O)c12 [Compound 5, myricetin] as the compound, how does the “inhibition of APE1” value ([4]; 0.33 mM compound, with detergent (0.05% Brij 35) and BSA) read?
**A.** Its value is “weak inhibition”.

**Q.** What about the “effect of detergent on aggregation” value [2] of the same compound?
**A.** Its value is “disrupted by detergent”.

**Q.** And the “concentration at which colloidal aggregates form” value [2, 8]?
**A.** Its value is at least 330 µM.

**Q.** What about the “effect of centrifugation on aggregates” value [2] of the same compound?
**A.** The value was “pelleted by centrifugation”.

**Q.** What about the IC50 ([3]; read-out: IC50 for APE1 inhibition (previous finding)) of the same compound?
**A.** Its IC50 is 0.3 µM.

**Q.** Which “slope factor of the dependence of FA on compound concentration” value ([4]; 0.05% Brij 35, 0.1 mg/ml BSA) does the source give for Cc1cc(C)c2c(N)c3cccc(C)c3nc2n1 [Compound 6] here?
**A.** Its value is 1.5 ± 0.2.

**Q.** And the IC50 [4, 11]?
**A.** Its IC50 is 3.1 ± 0.3 µM.

**Q.** What about the IC50 ([4]; as restated in the NMR section, read-out: IC50 observed here) of the same compound?
**A.** Its IC50 is 3 µM.

**Q.** What about the “CSPs (Δδ >0.015 ppm) for any residue of Mg2+-bound APE1” value ([5]; compound 0.30 mM, APE1 0.10 mM) of the same compound?
**A.** The value was “does not induce CSPs”.

**Q.** And the “residues exhibiting Δδ >0.015 ppm” value ([1]; 0.10 mM apo APE1, 0.30 mM compound)?
**A.** Its value is “no residues”.

**Q.** What about the IC50 ([3]; read-out: IC50 for APE1 inhibition in vitro (previous finding)) of the same compound?
**A.** Its IC50 is 2 µM.

**Q.** For CC(=O)Nc1sc2c(c1-c1nc3ccccc3s1)CCN(C(C)C)C2 [Compound 7, N-(3-(benzo[d]-thiazol-2-yl)-6-isopropyl-4,5,6,7-tetrahydrothieno[2,3-c]-pyridin-2-yl)acetamide], which “slope factor of the dependence of FA on compound concentration” value ([4]; 0.05% Brij 35, 0.1 mg/ml BSA) is on record?
**A.** Its value is 1.2 ± 0.1.

**Q.** And the IC50 [4, 11]?
**A.** Its IC50 is 8.1 ± 0.6 µM.

**Q.** What about the “CSPs (Δδ >0.015 ppm) for any backbone residue of Mg2+-bound APE1” value ([5]; compound 0.030 mM, APE1 0.05 mM, 0.05% Brij 35) of the same compound?
**A.** Its value is “fails to induce CSPs”.

**Q.** What about the “residues exhibiting Δδ >0.015 ppm” value ([1]; 0.05 mM apo APE1, 0.03 mM compound, 0.05% Brij 35) of the same compound?
**A.** The value was “two”.

**Q.** And the Kd ([1]; inferred from the absence of a detectible interaction, apo-APE1 0.05 mM, compound 0.03 mM, read-out: Kd for binding to apo-APE1)?
**A.** The Kd was over 30 µM.

**Q.** And the “population of AP-DNA bound” value ([6]; compound 0.01 mM)?
**A.** Its value is “about 30%”.

**Q.** What about the “population of AP-DNA bound” value ([6]; compound 0.03 mM) of the same compound?
**A.** Its value is ~ 5%.

**Q.** What about the Kd ([6]; inferred from the previous EMSA results, read-out: Kd for binding to either APE1 or AP-DNA) of the same compound?
**A.** The Kd was under 10 µM.

**Q.** What about the “concentration at which the compound precipitates in NMR samples” value [7] of the same compound?
**A.** Its value is at least 90 µM.
